Source: patent US9400280B2, “Piperidine derivatives and methods of treating hepatitis B infections” (Novira Therapeutics, Inc., priority 2014, dated 2016)

What was measured:
[1] = target: HBV C150Bo capsid (core) protein (Hepatitis B virus genotype D subtype adw, UniProt P03147, C107A/C48A/C61A/R150C); assay: HBV assembly assay (fluorescence quenching in vitro capsid assembly); type: biochemical; conditions: at about 10 μM; 50 mM Hepes pH 7.5, 150 mM NaCl, 1 hour at room temperature
[2] = tested on: HBV replication in HepG2-2.2.15 cells; assay: Dot-blot assay (inhibition of HBV replication); type: cell-based; conditions: at 10 μM, six days, reduction in HBV DNA levels
Experimental: Compounds active in the HBV assembly assay are tested for their activity and toxicity in cellular assay. In the first anti-viral assay, the ability of compounds to inhibit HBV replication in an HBV-producing hepatoma cell line using the dot-blot method is evaluated.
Briefly, confluent monolayers of HepG2-2.2.15 cells are incubated with complete medium containing various concentrations of a test compound. Three days later, the culture medium is replaced with fresh medium containing the appropriately diluted test compound. Six days following the initial administration of the test compound, the cell culture supernatant is collected, and cell lysis is performed. The samples are applied onto Nylos membranes and DNA is immobilized to the membrane by UV cross-linking. After pre-hybridization, the HBV probe is added and the hybridization is performed overnight. The membranes are exposed to the Kodak films; antiviral activity is calculated from the reduction in HBV DNA levels (EC50). The EC50 for antiviral activity is calculated from the dose response curves of active compounds. Assay performance over time is monitored by the use of the standard positive control compounds ETV, BAY 41-4109, and HAP-1.
Selected compounds were tested for their activity and toxicity in cellular assay. In the first anti-viral assay, the ability of compounds to inhibit HBV replication in an HBV-producing hepatoma cell line using the dot-blot method was evaluated.
Confluent monolayers of HepG2-2.2.15 cells were incubated with complete medium containing various concentrations of a test compound. Three days later, the culture medium was replaced with fresh medium containing the appropriately diluted test compound. Six days following the initial administration of the test compound, the cell culture supernatant was collected, and cell lysis was performed. The samples were applied onto Nylos membranes and DNA was immobilized to the membrane by UV cross-linking. After pre-hybridization, the HBV probe was added and the hybridization was performed overnight. The membranes were exposed to the Kodak films; antiviral activity was calculated from the reduction in HBV DNA levels (EC50). The EC50 for antiviral activity was calculated from the dose response curves of active compounds. Assay performance over time was monitored by the use of the standard positive control compounds ETV, BAY 41-4109, and HAP-1.

Chain of HBV C150Bo capsid (core) protein (P03147 1-150 C48A/C61A/C107A/R150C): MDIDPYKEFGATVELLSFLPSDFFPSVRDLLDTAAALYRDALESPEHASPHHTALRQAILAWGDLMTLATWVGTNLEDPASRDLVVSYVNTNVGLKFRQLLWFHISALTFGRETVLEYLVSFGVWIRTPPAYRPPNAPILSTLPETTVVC

Compound	Activity (HBV assembly assay) [1]	Activity in dot-blot-assay [2]
CCOc1ccc(C(=O)Nc2ccc(F)c(Cl)c2)cc1S(=O)(=O)N1CCC(O)C(F)(F)C1 (stereo not drawn) [Compound 1965]	+ (‘+’ indicates >50% activity at about 10 (μM))	
O=C(Nc1ccc(F)c(Cl)c1)c1ccc(O)c(S(=O)(=O)N2CCC(O)C(F)(F)C2)c1 (stereo not drawn) [Compound 1963]	+ (‘+’ indicates >50% activity at about 10 (μM))	
O=C(Nc1cc(F)c(F)c(F)c1)c1ccc(F)c(S(=O)(=O)N2CCC(O)C(F)(F)C2)c1 (stereo not drawn) [Compound 1732]	+ (‘+’ indicates >50% activity at about 10 (μM))	+ (‘+’ indicates >50% activity at 10 (μM))
O=C(Nc1ccc(F)c(F)c1)c1ccc(F)c(S(=O)(=O)N2CCC(O)C(F)(F)C2)c1 (stereo not drawn) [Compound 1733]	+ (‘+’ indicates >50% activity at about 10 (μM))	+ (‘+’ indicates >50% activity at 10 (μM))
O=C(Nc1ccc(F)c(Cl)c1)c1ccc(F)c(S(=O)(=O)N2CCC(O)C(F)(F)C2)c1 (stereo not drawn) [Compound 1734]	+ (‘+’ indicates >50% activity at about 10 (μM))	+ (‘+’ indicates >50% activity at 10 (μM))
COc1ccc(C(=O)Nc2ccc(F)c(Cl)c2)cc1S(=O)(=O)N1CCC(O)C(F)(F)C1 (stereo not drawn) [Compound 1964]	+ (‘+’ indicates >50% activity at about 10 (μM))	
O=C(Nc1ccc(F)c(Cl)c1)c1ccc(CF)c(S(=O)(=O)N2CCC(O)C(F)(F)C2)c1 (stereo not drawn) [Compound 1995]	+ (‘+’ indicates >50% activity at about 10 (μM))	+ (‘+’ indicates >50% activity at 10 (μM))
O=C(Nc1ccc(F)c(Cl)c1)c1ccc(OC2CC2)c(S(=O)(=O)N2CCC(O)C(F)(F)C2)c1 (stereo not drawn) [Compound 1967]	+ (‘+’ indicates >50% activity at about 10 (μM))	
